# Entries after “also recorded” stand apart in the source; their conditions may differ. Bridges are numbered along the chain shown (N, C = ends). Where no end group is shown, it is not given here.
# Experiments:
# Design in all cases: species or system Asterias rubens
# [1] = system: apical muscle preparations from A. rubens; test: in vitro contractility of apical muscle preparations; conditions: data not shown
# Method: Synthetic ArSS2 ([…], with a disulfide bridge between the cysteine residues) was custom synthesized (Peptide Protein Research Ltd, Fareham, UK) to enable testing of its pharmacological effects on in vitro preparations of organs/muscles from A. rubens. ArSS2 was tested for its in vitro effects on the contractility of tube foot, apical muscle and cardiac stomach preparations from at least six different specimens of A. rubens. Individual tube foot preparations were dissected from starfish arms with their corresponding ampulla intact. Then cotton ligatures were tied around the ambulacral body wall and the tube foot disc and then the external epithelium of the tube foot was scraped off using a blunt scalpel blade to facilitate penetration of peptides when tested in vitro, as described previously. Apical muscle preparations were dissected from the aboral body wall with approximately 1 cm strips of apical muscle tied at each end with cotton ligatures. Cardiac stomach preparations were dissected as described previously and then were tied at the aboral side of the cardiac stomach and around the oesophagus with cotton ligatures. […] Data collected from PowerLab were visualized as traces and analysed using LabChart (v. 8.0.7) software installed on a laptop computer (Lenovo E540, Windows 7 Professional). […]
# [2] = system: tube foot preparations from A. rubens; test: in vitro relaxation of tube foot preparations
# Method: Synthetic ArSS2 ([…], with a disulfide bridge between the cysteine residues) was custom synthesized (Peptide Protein Research Ltd, Fareham, UK) to enable testing of its pharmacological effects on in vitro preparations of organs/muscles from A. rubens. ArSS2 was tested for its in vitro effects on the contractility of tube foot, apical muscle and cardiac stomach preparations from at least six different specimens of A. rubens. Individual tube foot preparations were dissected from starfish arms with their corresponding ampulla intact. […] Data collected from PowerLab were visualized as traces and analysed using LabChart (v. 8.0.7) software installed on a laptop computer (Lenovo E540, Windows 7 Professional). […]
# (§1) To examine the effects of ArSS2 on tube foot and cardiac stomach preparations, 10^−6 M acetylcholine (ACh) or artificial seawater (ASW) containing 30 mM added KCl was used to induce contraction of these preparations, respectively. Once a stable baseline contracted state was achieved, synthetic ArSS2 was added into the organ bath to sequentially achieve final concentrations in the range of 10^−10 to 10^−6 M. For these experiments, the contracting effect of 10^−6 M ACh or ASW containing 30 mM added KCl was defined as 100% and the relaxing effects of ArSS2 were then calculated as a percentage reversal of the 100% contracted state.
# [3] = system: cardiac stomach preparations from A. rubens; test: in vitro relaxation of cardiac stomach preparations
# Method: Synthetic ArSS2 ([…], with a disulfide bridge between the cysteine residues) was custom synthesized (Peptide Protein Research Ltd, Fareham, UK) to enable testing of its pharmacological effects on in vitro preparations of organs/muscles from A. rubens. ArSS2 was tested for its in vitro effects on the contractility of tube foot, apical muscle and cardiac stomach preparations from at least six different specimens of A. rubens. Individual tube foot preparations were dissected from starfish arms with their corresponding ampulla intact. Then cotton ligatures were tied around the ambulacral body wall and the tube foot disc and then the external epithelium of the tube foot was scraped off using a blunt scalpel blade to facilitate penetration of peptides when tested in vitro, as described previously. Apical muscle preparations were dissected from the aboral body wall with approximately 1 cm strips of apical muscle tied at each end with cotton ligatures. Cardiac stomach preparations were dissected as described previously and then were tied at the aboral side of the cardiac stomach and around the oesophagus with cotton ligatures. The dissected preparations were tied to a fixed metal hook orally and to a high-grade isotonic transducer (MLT0015; ADInstruments Ltd; Oxford, UK) aborally, suspended in a 20 ml aerated organ bath containing artificial seawater at approximately 11°C. The transducer was connected via a bridge amplifier (FE221 Bridge Amp, ADInstruments Ltd, Oxford, UK) to data acquisition hardware (PowerLab 2/36, ADInstruments Ltd, Oxford, UK). Data collected from PowerLab were visualized as traces and analysed using LabChart (v. 8.0.7) software installed on a laptop computer (Lenovo E540, Windows 7 Professional).
# as §1
# Experiments were performed where the effects of ArSS2, S2 and asterotocin (at 10^−7 and 10^−6 M) on cardiac stomach preparations (n = 6) were compared. For these experiments, the effect of 10^−7 or 10^−6 M S2 was defined as 100% and the effect of asterotocin or ArSS2 was calculated as a % of the effect of S2. To determine if there were significant differences in magnitude of the relaxing effects of the three peptides on cardiac stomach preparations, data were analysed statistically using a two-tailed Student's t-test in Prism 6.
# [4] = 10^−7 M, KCl-contracted, mean, n = 6
sequence,measurement,setting,value
RAKNARCMADFWKGRGLVDC (disulfide 7-20 (inferred)) [ArSS2],effect on contractility of apical muscle preparations,[1],did not cause relaxation; also recorded: no observable effects
same,reversal of ACh-induced tube foot contraction,"[2]; 10^−6 M, contraction induced by 10^−6 M acetylcholine = 100%, artificial seawater, approximately 11°C, mean ± s.e.m., n = 6",91% ± 13%
same,relaxation of tube foot preparations,"[2]; pre-contracted with 10^−6 M ACh, tested 10^−10 to 10^−6 M",dose-dependent relaxation of tube foot preparations at concentrations between 10^−9 and 10^−6 M
same,extent of relaxation of cardiac stomach preparations,[3]; 10^−6 M,maximal relaxation
same,magnitude of cardiac stomach relaxing action compared with S2,"[3]; 10^−6 M, KCl-contracted, n = 6",not significantly different to the effect S2
same,reversal of KCl-induced cardiac stomach contraction,"[3]; 10^−6 M, contraction induced by 30 mM KCl = 100%, artificial seawater, approximately 11°C, mean ± s.e.m., n = 10",60 ± 18%
same,magnitude of cardiac stomach relaxing action relative to S2,[3]; [4],1.5 times the effect of S2
same,magnitude of cardiac stomach relaxing action relative to asterotocin,[3]; [4],44 % of the effect of asterotocin
same,relaxing effect compared with S2,"[3]; 10^−7 M, two-tailed Student's t-test p = 0.0303, n = 6",significantly larger than the effect of S2
same,relaxation of cardiac stomach preparations,"[3]; pre-contracted with 30 mM KCl, tested 10^−10 to 10^−6 M",dose-dependent relaxation of cardiac stomach preparations at concentrations between 10^−9 and 10^−6 M

# — publication PMC7536072, “Molecular and functional characterization of somatostatin-type signalling in a deuterostome invertebrate” (Open Biology, 2020)
